Assay results published in patent publication US20190030053A1, “COMPOSITION FOR INCREASING EXPRESSION OF PGC-1alpha” (BENEBIOSIS CO., LTD., priority 2016, published 2019).

Tests used:
PGC-1α and related genes = test: Gene expression in brain and hippocampus of Parkinson's disease models; assay type: in vivo, rat; details: 6-OHDA SD rats, oral 0.1 mg/kg/day
From the text: In order to investigate the changes in gene expression and behavior improvement by the treatment with SL (3′-SL & 6′-SL) compositions in Parkinson's brain disease models, 13-week-old normal SD rats and Parkinson's brain disease models were purchased from Central Lab Animal (Korea). Water was freely accessible, and a commercially available pellet feed (Dooyeul Biotech, Korea) was given for one week. At 14 weeks of age, the SD rats were divided into four groups (composed of 8 animals per group): Eight 14-week-old male SD rats (normal rats; initial body weight, average 355.6±32.3 g) treated with a normal diet were used for a control group. […]
Sialyllactose or DW was orally administered daily. […] The dietary intake and body weight change were measured every 5 days. […]
The gene expression changes by the treatment with SL (3′-SL & 6′-SL) compositions were quantitatively compared in two main organs (brain and hippocampus) associated with bran diseases. RNA was extracted by TRIzol agent (Invitrogen). cDNA was synthesized by using RNA, which has been extracted as above and quantified, and a reverse transcription system (Promega, USA). The expression patterns of PGC-1α and related genes were measured by using pre-designed primers and probes (Applied Biosystems; PGC-1α, Mm00447181_m1, GAPDH, and Mm99999915_q1) for the synthesized cDNA and analysis targets (Fndc5, PGC-1α, Erra, UCP1, BDNF, SOD2, and GPX1). […]

[1] = test system: ob mouse (C57BL/6J-ob/ob) models; test: Topical fat removal by meso roller administration in ob mouse models; assay type: in vivo; details: 0.1 M SL, meso roller on day 0 and day 4, observed on day 7
Experimental: In addition, in the ob mouse (C57BL/6J-ob/ob) models fed with a high-fat diet without SL treatment, the topical fat removal effect by SL (3′-SL & 6′-SL) administration using a meso roller (0.5 mm, INTO MR, Intomedi Inc.) was investigated. Specifically, the hairs on the dorsal side of the […] were shaved, and 0.1 M SL in the saline buffer was applied to the skin, and was absorbed into the skin by rubbing with the meso roller. The control group was tested by the same method except that the buffer was used without SL. […] In FIG. 15, 3′-SL, 6′-SL, and CTL represent the 3′-SL administration group, the 6′-SL administration group, and the control group, respectively. After feeding with a high-fat diet for 10 weeks, SL (3′-SL & 6′-SL) compositions were topically administered on day 0 and day 4 using the meso roller, and then dermoscopy observation was conducted on day 7. The observation results are shown.

[2] = test system: mouse aortic smooth muscle cells (MASMs); test: Intracellular H2O2 (ROS values, H2DCFDA) in MASMs of arteriosclerosis model mice; assay type: cell-based; details: MASMs from PGC-1α+/+ApoE−/− mice; SL added to culture liquid
Experimental: For cell-level tests, mouse aortic smooth muscle cells (MASMs) were isolated from the control group fed with a high-fat diet (Rodent Diet with 60 kcal % fat) without SL administration (Griendling et al., 1991), and the SL (3′-SL & 6′-SL) compositions were added to the culture liquid, followed by comparison. For intracellular H2O2 measurement (ROS values), the cells were cultured in 12-well culture plates immersed in 0.1% bovine calf serum. The intracellular ROS values were measured using H2DCFDA. For assay, the cells were cultured together with H2DCFDA in HBSS buffer for 30 minutes. The cells were trypsinized, washed, and lysed in HBSS. The fluorescence values were measured immediately by a CytoFluor plate reader (FIG. 19a).
In FIGS. 19a and 19b, MASMs were extracted from the model mouse (PGC-1α^+/+ApoE^−/−) control group, and the SL (3′-SL & 6′-SL) compositions were added to the culture liquid to conduct comparison.
FIGS. 19a and 19b show the measurement results of intercellular H2O2 (ROS values) (FIG. 19a) and the measurement results of mitochondrial superoxide production (FIG. 19b). MASMs were extracted from the model mice (PGC-1α^+/+ApoE^−/−), and the SL (3′-SL & 6′-SL) compositions were added to the culture liquid to conduct comparison.

SMILES	expression levels of PGC-1α and related genes vs SL non-administration (Parkinson's disease model) group (PGC-1α and related genes)	topical fat removal (dermoscopy) vs negative control portion [1]	intracellular H2O2 (ROS values) [2]	expression levels of PGC-1α and related genes vs normal control group (PGC-1α and related genes)
CC(=O)N[C@H]1[C@H]([C@H](O)[C@H](O)CO)O[C@@](O[C@H]2[C@@H](O)[C@@H](CO)O[C@@H](O[C@H]3[C@H](O)[C@@H](O)C(O)O[C@@H]3CO)[C@@H]2O)(C(=O)O)C[C@@H]1O (stereo partly drawn) [3′-SL, α-NeuNAc-(2→3)-β-D-Gal-(1→4)-D-Glc]	relatively low compared with 6′-SL	relatively low compared with 6′-SL	dropped the ROS values	
CC(=O)N[C@H]1[C@H]([C@H](O)[C@H](O)CO)O[C@@](OC[C@H]2O[C@@H](O[C@H]3[C@H](O)[C@@H](O)[C@H](O)O[C@@H]3CO)[C@H](O)[C@@H](O)[C@H]2O)(C(=O)O)C[C@@H]1O [6′-SL, α-NeuNAc-(2→6)-β-D-Gal-(1→4)-D-Glc]	very high	topical fat was removed	dropped the ROS values	somewhat lower
